The solubility is the dissolved amount per volume that the medium holds.

For data set [1] the following is noted: cited from earlier work.
Data set [2] in a line: Solubility of calcium salt in water (concentration in filtered solution, UV method). Type of data set: physicochemical. The conditions noted are these: concentration in solution filtered through 0.2 μm filter. How it is done: Aqueous solutions of a sodium salt of the methyl ester of N-all-trans-retinoyl cysteic acid (5 ml, 15 mg/ml) and calcium chloride (3 ml, 30 mg/ml) were mixed in a 10 ml test tube. During the mixing a fine precipitation emerged. The precipitate was separated by centrifugation of the test tube at 3000 rpm for 10 min. The supernatant was removed and the precipitate was shaken with 8 ml of water followed by a new centrifugation. After three additional washing procedures as described above the supernatant was filtered through a 0.2 μm filter in order to remove possible large aggregates of the product. […] The reaction is illustrated by the below general scheme involving chlorides of any polyvalent metal ions, not only calcium ions.

For `CO[C@H]1C[C@@H]2CC[C@@H](C)[C@@](O)(O2)C(=O)C(=O)N2CCCC[C@H]2C(=O)O[C@H]([C@H](C)C[C@@H]2CC[C@@H](OCCO)[C@H](OC)C2)CC(=O)[C@H](C)/C=C(\C)[C@@H](O)[C@@H](OC)C(=O)[C@H](C)C[C@H](C)/C=C/C=C/C=C/1C` [everolimus], the “Bioavailability at oral administration” value in data set [1] is “about 20%”.

As to `CO[C@H]1C[C@@H]2CC[C@@H](C)[C@@](O)(O2)C(=O)C(=O)N2CCCC[C@H]2C(=O)O[C@H]([C@H](C)C[C@@H]2CC[C@@H](O)[C@H](OC)C2)CC(=O)[C@H](C)/C=C(\C)[C@@H](O)[C@@H](OC)C(=O)[C@H](C)C[C@H](C)/C=C/C=C/C=C/1C` [sirolimus], the “Bioavailability at oral administration” value in data set [1] is on record as “about 20%”.

On to `COC(=O)C(CS(=O)(=O)[O-])NC(=O)/C=C(C)/C=C/C=C(C)/C=C/C1=C(C)CCCC1(C)C.COC(=O)C(CS(=O)(=O)[O-])NC(=O)/C=C(C)/C=C/C=C(C)/C=C/C1=C(C)CCCC1(C)C.[Ca+2]` (stereo not drawn) [calcium salt of the methyl ester of N-all-trans-retinoyl cysteic acid], for which, in data set [2], the solubility was 200 µg/mL.

For `C=CC[C@@H]1/C=C(\C)C[C@H](C)C[C@H](OC)[C@H]2O[C@@](O)(C(=O)C(=O)N3CCCC[C@H]3C(=O)O[C@H](/C(C)=C/[C@@H]3CC[C@@H](O)[C@H](OC)C3)[C@H](C)[C@@H](O)CC1=O)[C@H](C)C[C@@H]2OC` [tacrolimus], in data set [1], the “Bioavailability at oral administration” value was “about 20%”.

Source of the values: patent USRE49742E1, “Drug delivery system for administration of poorly water soluble pharmaceutically active substances” (Vivesto AB, priority 2007, dated 2023).
